Where only a bound is given, the exact number is not on record here.

The experiment relates to HCV replicon. The experiment is described as follows: Replicon based assay of HCV replication inhibition (NPT ELISA). The following applies: Hepatitis C virus, replicon based assay of HCV replication inhibition; Table II; read-out: Activity. It is filed as cell-based, Hepatitis C virus. In a few lines: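 Huh-7 cells carrying a bicistronic HCV replicon (neo, EMCV-IRES-driven NS3–NS5B) treated overnight after seeding with usually 6 concentrations, 10 to 0.03 micromolar, for three days at 37° C without G418. Replication read as NPT level by captured ELISA; matched-DMSO wells and interferon alpha as controls.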
In general terms: Replicon systems follow genome replication, usually without infectious particles.
Turning to `CCCCCOc1ccc(Nc2nc(-c3ccc(C(=O)O)cc3)cs2)cc1F` [compound 426, 4-(2-(3-fluoro-4-(pentyloxy)phenylamino)thia-zol-4-yl)benzoic acid], the EC50 lay in the range of 1000 to 10000 nM.

Turning to `CCCCCOc1ccc(Nc2nc(CC)cs2)cc1F` [compound 427, 4-ethyl-N-(3-fluoro-4-(pentyloxy)phenyl)thiazol-2-amine], the EC50 fell in the range of 1000 to 10000 nM.

`COc1ccc(Cl)cc1Nc1nc(-c2cccnc2)cs1` [compound 428, N-(5-chloro-2-methoxyphenyl)-4-(pyridin-3-yl)thiazol-2-amine]: the EC50 was 1000 to 10000 nM.

In the case of `CC(=O)Nc1ccc(Nc2nc(-c3cccs3)cs2)cc1` [compound 429, N-(4-(4-(thiophen-2-yl)thiazol-2-ylamino)phenyl)acetamide], the EC50 was over 10000 nM.

In the case of `CCCCCOc1c(F)cc(Nc2nc(-c3cccnc3)cs2)cc1F` [compound 430, N-(3,5-difluoro-4-(pentyloxy)phenyl)-4-(pyridin-3-yl)thiazol-2-amine], the EC50 was under 1000 nM.

As for `CCCCCOc1ccc(Nc2nc(-c3cc(OC)ccc3OC)cs2)cc1C(F)(F)F` [compound 431, N-(3-(trifluoromethyl)-4-(pentyloxy)phenyl)-4-(2,5-dimethoxyphenyl)thiazol-2-amine], the EC50 lay within 1000 to 10000 nM.

On to `CCCCCCCOc1ccc(Nc2nc(-c3cc(OC)ccc3OC)cs2)cc1` [compound 432, N-(4-(heptyloxy)phenyl)-4-(2,5-dimethoxyphenyl)thiazol-2-amine], for which the EC50 is under 1000 nM.

With `CCCCCOc1ccc(Nc2nc(-c3cc(OC)ccc3OC)cs2)cc1F` [compound 433, N-(3-fluoro-4-(pentyloxy)phenyl)-4-(2,5-dimethoxyphenyl)thiazol-2-amine], the EC50 was under 1000 nM.

Take `CCCCCOc1ccc(Nc2nc(-c3cccc(O)c3)cs2)cc1C(F)(F)F` [compound 434, 3-(2-(3-(trifluoromethyl)-4-(pentyloxy)phenylmino)thia-zol-4-yl)phenol]: the EC50 lay within 1000 to 10000 nM.

Take `CCCCCCCOc1ccc(Nc2nc(-c3cccc(O)c3)cs2)cc1` [compound 435, 3-(2-(4-(heptyloxy)phenylamino)thia-zol-4-yl)phenol]: the EC50 was under 1000 nM.

Consider `CCCCCCCCOc1ccc(Nc2nc(-c3cccc(O)c3)cs2)cc1` [compound 436, 3-(2-(4-(octyloxy)phenylamino)thia-zol-4-yl)phenol], for which the EC50 is under 1000 nM.

For the compound `CCCCCOc1ccc(Nc2nc(-c3ccc(NC(C)=O)cc3)cs2)cc1C(F)(F)F` [compound 437, N-(4-(2-(3-(trifluoromethyl)-4-(pentyloxy)phenylamino)thia-zol-4-yl)phenyl)acetamide], the EC50 fell in the range of 1000 to 10000 nM.

`CCCCCCCOc1ccc(Nc2nc(-c3ccc(NC(C)=O)cc3)cs2)cc1` [compound 438, N-(4-(2-(4-(heptyloxy)phenylamino)thia-zol-4-yl)phenyl)acetamide]: the EC50 is under 1000 nM.

`CCCCCOc1ccc(Nc2nc(-c3ccc(NC(C)=O)cc3)cs2)cc1F` [compound 439, N-(4-(2-(3-fluoro-4-(pentyloxy)phenylamino)thia-zol-4-yl)phenyl)acetamide]: the EC50 was under 1000 nM.

For `COc1ccc(OC)c(Nc2ncc(-c3cccs3)s2)c1` [compound 440, N-(2,5-dimethoxyphenyl)-5-(thiophen-2-yl)thiazol-2-amine], the EC50 was in the range of 1000 to 10000 nM.

Regarding `CCCCCOc1ccc(Nc2nc(-c3cccnc3C)cs2)cc1C(F)(F)F` [compound 441, N-(3-(trifluoromethyl)-4-(pentyloxy)phenyl)-4-(2-methylpyridin-3-yl)thiazol-2-amine], the EC50 is under 1000 nM.

For `CCCCCCCCOc1ccc(Nc2nc(-c3cccnc3C)cs2)cc1` [compound 442, 4-(2-methylpyridin-3-yl)-N-(4-(octyloxy)phenyl)thiazol-2-amine], the EC50 is under 1000 nM.

For the compound `CCCCCOc1ccc(Nc2nc(-c3cccnc3)c(C(=O)OC)s2)cc1C(F)(F)F` [compound 443, methyl 2-(3-(trifluoromethyl)-4-(pentyloxy)phenylamino)-4-(pyridin-3-yl)thiazol-5-carboxylate], the EC50 was under 1000 nM.

For the compound `CCCCCCCCOc1ccc(Nc2nc(-c3cccnc3)c(C(=O)OC)s2)cc1` [compound 444, meethyl 2-(4-(octyloxy)pheenylamino)-4-(pyridin-3-yl)thiazol-5-carboxylate], the EC50 fell in the range of 1000 to 10000 nM.

`CCCCCOc1ccc(Nc2nc(-c3c(C)cc(C)nc3C)cs2)cc1C(F)(F)F` [compound 445, N-(3-(trifluoromethyl)-4-(pentyloxy)phenyl)-4-(2,4,6-trimethylpyridin-3-yl)thiazol-2-amine]: the EC50 was over 10000 nM.

Take `CCCCCCCOc1ccc(Nc2nc(-c3c(C)cc(C)nc3C)cs2)cc1` [compound 446, N-(4-(heptyloxy)phenyl)-4-(2,4,6-trimethylpyridin-3-yl)thiazol-2-amine]: the EC50 is over 10000 nM.

Consider `CCCCCCCCOc1ccc(Nc2nc(-c3c(C)cc(C)nc3C)cs2)cc1` [compound 447, 4-(2,4,6-trimethylpyridin-3-yl)-N-(4-(octyloxy)phenyl)thiazol-2-amine], for which the EC50 was over 10000 nM.

`CCCCCCCOc1ccc(Nc2nc(-c3ccc(O)c(C(N)=O)c3)cs2)cc1` [compound 448, 5-(2-(4-- (heptyloxy)phenylamino)thia-zol-4-yl)-2-hydroxybenzamide]: the EC50 was under 1000 nM.

As for `CCCCCCCCOc1ccc(Nc2nc(-c3ccc(O)c(C(N)=O)c3)cs2)cc1` [compound 449, 5-(2-(4-(octyloxy)phenylamino)thia-zol-4-yl)-2-hydroxybenzamide], the EC50 was under 1000 nM.

Consider `CCCCCOc1ccc(Nc2nc(-c3ccc(N4CCCC4)nc3)cs2)cc1C(F)(F)F` [compound 450, N-(3-(trifluoromethyl)-4-(pentyloxy)phenyl)-4-(6-(pyrrolidin-1-yl)pyridin-3-yl)thiazol-2-amine], for which the EC50 was under 1000 nM.

As to `CCCCCCCc1ccc(C(=O)Nc2nc(-c3ccc(Cl)cc3)cs2)cc1` [compound 451, N-(4-(4-chlorophenyl)thiazol-2-yl)-4-heptylbenzamide], the EC50 was under 1000 nM.

Take `CCCCCCOc1ccc(Nc2nc(-c3ccc(F)cc3)cs2)cc1` [compound 452, 4-(4-fluorophenyl)-N-(4-(hexyloxy)phenyl)thiazol-2-amine]: the EC50 is under 1000 nM.

As to `Cc1ccc(-c2csc(Nc3ccc(OC4CCCC4)c(C(F)(F)F)c3)n2)cn1` [compound 453, N-(4-(cyclopentyloxy)-3-(trifluoromethyl)phenyl)-4-(6-methylpyridin-3-yl)thiazol-2-amine], the EC50 was under 1000 nM.

In the case of `CCCCCN(C)c1ccc(Nc2nc(-c3ccc(C)nc3)cs2)cc1C(F)(F)F` [compound 454, 2-(trifluoromethyl)-N^1-methyl-N^4-(4-(6-methylpyridin-3-yl)thiazol-2-yl)-N^1-pentylbenzene-1,4-diamine], the EC50 is under 1000 nM.

`CCCCCCOc1ccc(Nc2nc(-c3ccc(C)nc3)cs2)cc1` [compound 455, N-(4-(hexyloxy)phenyl)-4-(6-methylpyridin-3-yl)thiazol-2-amine]: the EC50 is under 1000 nM.

Regarding `CCCCCCCCOc1ccc(Nc2nc(-c3ccc(C(=O)N(C)C)nc3)cs2)cc1` [compound 456, 5-(2-(4-(octyloxy)phenylamino)thia-zol-4-yl)-N,N-dimethylpyridine-2-carboxamide], the EC50 was 1000 to 10000 nM.

Values taken from US8088806B2 (Achillion Pharmaceuticals, Inc., priority 2005, dated 2012).
